Results taken from patent US4401822A, “Derivatives of 4-amino-5-alkyl sulphonyl orthoanisamides” (Societe de'Etudes Scientifiques et Industrielles de …, priority 1978, dated 1983).
Entries after “also recorded” stand apart in the source; their conditions may differ. Counter-ions that a name gives are not always drawn. Like-named read-outs stand apart in the source and are kept apart here.

How the values were obtained:
serotonin [1] = assay: antiserotonin action in respect of bronchospasm in the guinea-pig, method of Konzett and Rossler; assay type: in vivo; conditions: serotonin 20 μg/kg intravenously, anaesthetised guinea-pigs
Procedure: The antiserotonin action in respect of bronchospasm has been studied in the guinea-pig under the following conditions:
The bronchospasm is recorded by the method of Konzett and Rossler, which comprises connecting the trachea of the guinea-pig to an artificial respiration pump, which passes a constant volume of air, slightly greater than the respiratory capacity of the animal, into the bronchi at a physiological rhythm. The excess quantity of air, which varies according to the diameter of the bronchi, is discharged to a special manometric device which measures the volume of air at each inhalation.
The serotonin is administered intravenously to the guinea-pigs in a dose of 20 μg/kg. The guinea-pigs have previously been anaesthetised with ethyl carbamate, thus producing a bronchial spasm.
The product to be studied is then administered intravenously, after which the administration of serotonin is repeated one minute later. The percentage inhibition of bronchospasm is measured for each dose of the product to be studied, then the antiserotonin DE50 relative to bronchospasm in the guinea-pig is determined.

apomorphine = assay: antiemetic power relative to apomorphine, dogs, method of Chen and Ensor; assay type: in vivo, dog; conditions: s.c. 30 minutes before apomorphine 100 μg/kg s.c.; for ED50: Canis lupus familiaris, sc, read-out: Antiapomorphine ED50 in the dog
Procedure: The compounds of the invention have undergone other pharmacodynamic tests, and in particular their antiemetic power relative to apomorphine has been measured.
The test has been carried out on dogs by the method of Chen and Ensor.
The compounds of the invention are administered subcutaneously, 30 minutes before the apomorphine, which is administered subcutaneously in a dose of 100 μg/kg.

[2] = acute toxicity in mice (LD50); assay type: in vivo; conditions: mouse, in vivo, male mouse
From the text: (§1) The acute toxicity of the compounds according to the invention has been studied in mice. The lethal doses 50 are set out in the table which follows:
(§2) LD50 DETERMINED IN THE MALE MOUSE -

serotonin [3] = assay: antiserotonin action in connection with stomach ulceration in the rat; assay type: in vivo; conditions: sc
Procedure: The antiserotonin action in connection with stomach ulceration has been studied in the rat under the following conditions:
30 mg/kg of serotonin is administered subcutaneously to female rats in two stages, with an interval of 16 hours. The product being studied is administered subcutaneously at the same time as the serotonin, in two stages with increasing doses. A group of 30 animals is used for each dose and a group of 60 animals is used as the control. The animals are sacrificed 22 hours after the first injection of serotonin, and their stomachs are taken out and examined. The percentage protection for each dose studied is determined, then the DE50, the dose protecting 50% of the animals, from gastric ulceration, is measured graphically.

male mouse = assay: acute toxicity in mice (LD50); assay type: in vivo
From the text: as §1, §2

male rats = assay: cataleptic action in male rats, subcutaneous; assay type: in vivo, rat; conditions: 200 mg/kg subcutaneously, after 7 hours
Procedure: The cataleptic action has been studied as follows.
Benzamides are administered subcutaneously to male rats. The criterion taken for the cataleptic state is that the animal should be immobile for 30 seconds with its rear limbs apart, arranged carefully on wooden cubes 4 cm high, which thus puts the animal in an unaccustomed and uncomfortable position.
The cataleptic action is measured when the effect is at its maximum, i.e. 5 to 7 hours after the substance has been administered.

[4] = test system: patients suffering from migraine; assay: clinical treatment of migraine; assay type: in vivo; conditions: single patients, 100-300 mg per day
Procedure: Compound (1) was administered in a dose of three tablets per day (300 mg) to a patient suffering from frequent migraines; these obliged hereto interrupt any professional activity for three or four days per month.
Compound (1) was administered in a daily dose of 300 mg taken in three portions, to two twin brothers who suffered each month from attacks of migraine accompanied by vomiting.
Compound (2) was administered continuously, in doses of two tablets per day (200 mg), to a person who had suffered from attacks of migraine for four years. The attacks had not responded to curative treatment (ergotamine and caffeine) or preventive treatment.
Compound (2) was administered in doses of three tablets per day (300 mg) to a person suffering from quasi permanent occipital cephalalgia and several times a week from attacks of migraine with right hemicrania, photophobia and nausea.

[5] = test system: patients suffering from catatonic hebephrenia; assay: clinical treatment of catatonic hebephrenia; assay type: in vivo; conditions: 100-300 mg daily oral or intramuscular, of 21 patients
Procedure: 21 patients suffering from catatonic hebephrenia were treated with compound (1), a daily dose of 100-300 mg being given orally or by intramuscular injection. In 13 cases removal of inhibitions was observed, sometimes with a reversal of mood, which made it possible to make contact with the patient.

[6] = test system: alcoholic or heroin addicts; assay type: in vivo; conditions: 200 mg per day oral or intramuscular, of 30 patients
Procedure: Thus for example, 200 mg per day of compound (1) was administered orally or by intramuscular injection to 30 patients who were alcoholic or heroin addicts. In 28 cases the product acted rapidly and the drug addicts asked for more. Its effect is different from that of opiates and the main antalgics.

[7] = test system: patients suffering from sudden attacks of delirium; assay: clinical treatment of sudden attacks of delirium; assay type: in vivo; conditions: 350 mg per day oral or intramuscular
Procedure: 41 patients suffering from sudden attacks of delirium were treated with 350 mg per day of compound (2), administered orally or by intramuscular injection.

[8] = Rattus norvegicus, 22 h, female rats, serotonin 30 mg/kg s.c. in two stages, dose protecting 50% of the animals, read-out: Antiserotonin ED50 in respect of stomach ulceration, in the rat

Structure (SMILES): CCN1CCCC1CNC(=O)c1cc(S(=O)(=O)CC)c(N)cc1OC (single isomer, unassigned) [Compound 4, Dextrorotatory tartrate of N-[1-ethyl 2-pyrrolidylmethyl]2-methoxy 4-amino 5-ethylsulphonyl benzamide]
- Antiserotonin ED50 relative to bronchospasm in the guinea-pig (serotonin [1]): 106 μg/kg/IV
- Antiapomorphine ED50 in the dog (apomorphine): 12 μg/kg/s.c.
- LD50 ([2]; ip, I.P.): 188 mg/kg
- LD50 ([2]; iv): 39.8 mg/kg
- LD50 ([2]; po): 1560 to 1620 mg/kg
- LD50 ([2]; sc, subcutaneous): 254 to 263 mg/kg
- ED50 (serotonin [3]; [8]): 0.46 mg/kg

Structure (SMILES): CCN1CCCC1CNC(=O)c1cc(S(=O)(=O)CC)c(N)cc1OC (single isomer, unassigned) [Compound 5, Levorotatory tartrate of N-[1-ethyl 2-pyrrolidylmethyl]2-methoxy 4-amino 5-ethylsulphonyl benzamide]
- Antiapomorphine ED50 in the dog (apomorphine): 0.28 μg/kg/s.c.
- LD50 (male mouse; I.P.): 122 to 128 mg/kg
- LD50 (male mouse; intravenous): 44.8 mg/kg
- LD50 (male mouse; oral): 1109 to 1160 mg/kg
- LD50 (male mouse; subcutaneous): 137 to 149 mg/kg
- cataleptic state, % of the animals (male rats): 30%

Structure (SMILES): CCS(=O)(=O)c1cc(C(=O)NCC2CCCN2C)c(OC)cc1N (single isomer, unassigned) [Compound 6, Dextrorotatory N-1-methyl 2-pyrrolidylmethyl 2-methoxy 4-amino 5-ethylsulphonyl benzamide]
- ED50 (apomorphine): 8 µg/kg
- LD50 ([2]; ip, I.P.): 304 to 322 mg/kg
- LD50 ([2]; iv): 62 to 64 mg/kg
- LD50 ([2]; po): 1190 to 1260 mg/kg
- LD50 ([2]; sc, subcutaneous): 380 to 396 mg/kg
- ED50 (serotonin [3]; [8]): 0.34 to 0.44 mg/kg

Structure (SMILES): CCN1CCCC1CNC(=O)c1cc(S(=O)(=O)CC)c(N)cc1OC (stereo not drawn) [Compound 1, N-(1-ethyl 2-pyrrolidylmethyl) 2-methoxy 4-amino 5-ethylsulphonyl benzamide]
- effect on migraine (in words) [4]: The migraines decreased from the first month and disappeared altogether from the second month; also recorded: For one of the twins the migraine disappeared immediately; also recorded: For the other the pain disappeared from the second method and only a few attacks of nausea persisted
- cases with removal of inhibitions [5]: 13 cases
- Antiserotonin ED50 relative to bronchospasm in the guinea-pig (serotonin [1]): 74 μg/kg/IV
- ED50 (apomorphine): 0.29 µg/kg
- LD50 ([2]; ip, I.P.): 175 to 180 mg/kg
- LD50 ([2]; iv): 56 to 60 mg/kg
- LD50 ([2]; po): 1020 to 1050 mg/kg
- LD50 ([2]; sc, subcutaneous): 224 to 250 mg/kg
- ED50 (serotonin [3]; [8]): 1 mg/kg
- cases in which the product acted rapidly [6]: 28 cases

Structure (SMILES): CCS(=O)(=O)c1cc(C(=O)NCC2CCCN2C)c(OC)cc1N (stereo not drawn) [Compound 2, N-[1-methyl 2-pyrrolidylmethyl]2-methoxy 4-amino 5-ethylsulphonyl benzamide]
- effect on migraine (in words) [4]: their intensity is decreasing; also recorded: From the third week the migraine attacks disappeared completely
- ED50 (apomorphine): 0.8 µg/kg
- antidepressive action ([7]; 41 patients): there was an antidepressive action
- tolerance ([7]; 41 patients, all cases): excellent tolerance in all cases
- cases with a very good antipsychotic action in sudden attacks of delirium ([7]; of 41 patients): 38 cases
- LD50 ([2]; ip, I.P.): 210 to 217 mg/kg
- LD50 ([2]; iv): 56 to 57 mg/kg
- LD50 ([2]; po): 1330 mg/kg
- LD50 ([2]; sc, subcutaneous): 280 mg/kg
- ED50 (serotonin [3]; [8]): 0.4 mg/kg

Structure (SMILES): C=CCN1CCCC1CNC(=O)c1cc(S(=O)(=O)CC)c(N)cc1OC (stereo not drawn) [Compound 3, N-[1-allyl 2-pyrrolidylmethyl]2-methoxy 4-amino 5-ethylsulphonyl benzamide]
- ED50 (apomorphine): 0.65 µg/kg
- LD50 ([2]; ip, I.P.): 216 to 217 mg/kg
- LD50 ([2]; iv): 106 to 107 mg/kg
- LD50 ([2]; po): 2230 to 2380 mg/kg
- LD50 ([2]; sc, subcutaneous): 312 to 330 mg/kg
- ED50 (serotonin [3]; [8]): 0.65 mg/kg

Structure (SMILES): CCCS(=O)(=O)c1cc(C(=O)NCC2CCCN2CC)c(OC)cc1N (stereo not drawn) [Compound 7, N(1ethyl 2pyrrolidylmethyl) 2methoxy 4amino 5propylsulphonyl benzamide]
- ED50 (apomorphine): 1.6 µg/kg
- LD50 ([2]; ip, I.P.): 160 to 165 mg/kg
- LD50 ([2]; iv): 43 to 46.8 mg/kg
- LD50 ([2]; po): 570 to 629 mg/kg
- LD50 ([2]; sc, subcutaneous): 140 to 144 mg/kg
- ED50 (serotonin [3]; [8]): 3.2 mg/kg

Structure (SMILES): CCN1CCCC1CNC(=O)c1cc(S(C)(=O)=O)c(N)cc1OC (stereo not drawn) [Compound 8, N-[1-ethyl 2-pyrrolidylmethyl]2-methoxy 4-amino 5-methylsulphonyl benzamide]
- ED50 (apomorphine): 2.7 µg/kg
- LD50 ([2]; ip, I.P.): 234 to 238 mg/kg
- LD50 ([2]; iv): 46.5 to 50 mg/kg
- LD50 ([2]; po): 625 to 660 mg/kg
- LD50 ([2]; sc, subcutaneous): 208 to 225 mg/kg
- ED50 (serotonin [3]; [8]): 3 mg/kg

Structure (SMILES): COc1cc(N)c(S(C)(=O)=O)cc1C(=O)NCC1CCCN1C (stereo not drawn) [Compound 9, N-[1-methyl 2-pyrrolidylmethyl]2-methoxy 4-amino 5-methylsulphonyl benzamide]
- ED50 (apomorphine): 7 µg/kg
- LD50 ([2]; ip, I.P.): 200 to 216 mg/kg
- LD50 ([2]; iv): 54 mg/kg
- LD50 ([2]; sc, subcutaneous): 202 mg/kg
- ED50 (serotonin [3]; [8]): 1.14 mg/kg

Structure (SMILES): CCN1CCCC1CNC(=O)c1cc(S(N)(=O)=O)ccc1OC (stereo not drawn) [sulpiride, reference compound]
- ED50 (serotonin [3]; rat, comparator value in text, read-out: antiserotonin ED50 relative to stomach ulceration in the rat (comparator, text)): 110 mg/kg
